Results as given in the NIST ThermoML archive (doi:10.1016/j.jct.2014.01.012).

Assay: xn = mol fraction of the nth substance listed
Settings: 101 kPa, Liquid

CCCCCCn1cc[n+](C)c1.F[P-](F)(F)(F)(F)F [1-hexyl-3-methylimidazolium hexafluorophosphate] + CCOC(C)=O
Settings	mass density, Vibrating tube method [kg/m3]	speed of sound, Sing-around technique in a fixed-path interferometer [m/s]
293.15 K, x1 = 0.09053	985.573	1203.8
293.15 K, x1 = 0.1751	1047.27	1245.1
293.15 K, x1 = 0.2748	1103.27	1278.6
293.15 K, x1 = 0.3638	1142.32	1312.1
293.15 K, x1 = 0.4747	1181.82	1341.9
293.15 K, x1 = 0.5959	1215.82	1369.5
293.15 K, x1 = 0.6988	1239.42	1390.2
293.15 K, x1 = 0.7782	1254.92	1404.4
293.15 K, x1 = 0.8784	1272.57	1417.2
293.15 K, x1 = 0.9562	1285.17	1428.1
293.15 K, x1 = 1	1291.38	1436.9
298.15 K, x1 = 0.09053	980.708	1182.9
298.15 K, x1 = 0.1751	1042.71	1226
298.15 K, x1 = 0.2748	1098.95	1260.9
298.15 K, x1 = 0.3638	1138.08	1295.7
298.15 K, x1 = 0.4747	1177.55	1326.9
298.15 K, x1 = 0.5959	1211.68	1355.6
298.15 K, x1 = 0.6988	1235.47	1376.8
298.15 K, x1 = 0.7782	1251.3	1388.5
298.15 K, x1 = 0.8784	1269.1	1402.5
298.15 K, x1 = 0.9562	1281.27	1414.1
298.15 K, x1 = 1	1287.34	1423.5
303.15 K, x1 = 0.09053	975.56	1162.1
303.15 K, x1 = 0.1751	1037.99	1207
303.15 K, x1 = 0.2748	1094.55	1243.1
303.15 K, x1 = 0.3638	1133.41	1279.1
303.15 K, x1 = 0.4747	1173.05	1312.1
303.15 K, x1 = 0.5959	1207.51	1341.7
303.15 K, x1 = 0.6988	1231.55	1363.6
303.15 K, x1 = 0.7782	1247.62	1375.4
303.15 K, x1 = 0.8784	1265.46	1388.1
303.15 K, x1 = 0.9562	1277.49	1402.6
303.15 K, x1 = 1	1283.29	1410.6
308.15 K, x1 = 0.09053	970.46	1141.5
308.15 K, x1 = 0.1751	1033.19	1188.2
308.15 K, x1 = 0.2748	1089.85	1225.7
308.15 K, x1 = 0.3638	1128.89	1261.3
308.15 K, x1 = 0.4747	1168.92	1297.4
308.15 K, x1 = 0.5959	1203.51	1328
308.15 K, x1 = 0.6988	1227.75	1350.6
308.15 K, x1 = 0.7782	1243.95	1365
308.15 K, x1 = 0.8784	1261.82	1375.1
308.15 K, x1 = 0.9562	1273.69	1391
308.15 K, x1 = 1	1279.4	1398.2
313.15 K, x1 = 0.09053	964.46	1120.9
313.15 K, x1 = 0.1751	1027.59	1169.4
313.15 K, x1 = 0.2748	1084.79	1208.5
313.15 K, x1 = 0.3638	1124.28	1246.5
313.15 K, x1 = 0.4747	1164.75	1282.8
313.15 K, x1 = 0.5959	1199.65	1313.8
313.15 K, x1 = 0.6988	1224.15	1337.7
313.15 K, x1 = 0.7782	1240.32	1349.8
313.15 K, x1 = 0.8784	1258.46	1359.6
313.15 K, x1 = 0.9562	1270.35	1378
313.15 K, x1 = 1	1275.48	1386
318.15 K, x1 = 0.09053	960.532	1100.5
318.15 K, x1 = 0.1751	1023.8	1150.8
318.15 K, x1 = 0.2748	1080.46	1191.3
318.15 K, x1 = 0.3638	1119.61	1231.9
318.15 K, x1 = 0.4747	1160.23	1268.4
318.15 K, x1 = 0.5959	1195.59	1300.3
318.15 K, x1 = 0.6988	1220.56	1324.8
318.15 K, x1 = 0.7782	1236.86	1337.1
318.15 K, x1 = 0.8784	1254.52	1348.4
318.15 K, x1 = 0.9562	1266.02	1366
318.15 K, x1 = 1	1271.56	1374.2
323.15 K, x1 = 0.09053	955.246	1080.2
323.15 K, x1 = 0.1751	1018.76	1132.3
323.15 K, x1 = 0.2748	1075.54	1174.3
323.15 K, x1 = 0.3638	1114.9	1216.3
323.15 K, x1 = 0.4747	1155.92	1254.2
323.15 K, x1 = 0.5959	1191.86	1287.2
323.15 K, x1 = 0.6988	1217.05	1311.7
323.15 K, x1 = 0.7782	1233.69	1324.4
323.15 K, x1 = 0.8784	1251.25	1335.4
323.15 K, x1 = 0.9562	1262.25	1355.1
323.15 K, x1 = 1	1267.63	1362.5

CCCCCCCC[n+]1ccn(C)c1.F[P-](F)(F)(F)(F)F [1-octyl-3-methylimidazolium hexafluorophosphate] + CCCCOC(C)=O
Settings	mass density [kg/m3]	speed of sound [m/s]
293.15 K, x1 = 0.1078	957.599	1231.1
293.15 K, x1 = 0.2016	1010.44	1251
293.15 K, x1 = 0.3056	1058.02	1273.2
293.15 K, x1 = 0.3855	1088.56	1291.6
293.15 K, x1 = 0.4815	1119.98	1309.4
293.15 K, x1 = 0.5918	1150.6	1328.2
293.15 K, x1 = 0.6857	1173.18	1343.6
293.15 K, x1 = 0.7784	1193.01	1358.4
293.15 K, x1 = 0.8946	1215.11	1375.1
293.15 K, x1 = 1	1222.81	1388.2
298.15 K, x1 = 0.1078	953.226	1211.6
298.15 K, x1 = 0.2016	1006.23	1232.7
298.15 K, x1 = 0.3056	1053.87	1256.9
298.15 K, x1 = 0.3855	1084.42	1275
298.15 K, x1 = 0.4815	1115.96	1293.4
298.15 K, x1 = 0.5918	1146.75	1313.3
298.15 K, x1 = 0.6857	1169.44	1328.8
298.15 K, x1 = 0.7784	1189.32	1343.7
298.15 K, x1 = 0.8946	1211.35	1361.6
298.15 K, x1 = 1	1218.9	1373.4
303.15 K, x1 = 0.1078	948.745	1192.2
303.15 K, x1 = 0.2016	1001.93	1214.5
303.15 K, x1 = 0.3056	1049.62	1239.7
303.15 K, x1 = 0.3855	1080.26	1258.8
303.15 K, x1 = 0.4815	1111.97	1278.6
303.15 K, x1 = 0.5918	1142.89	1298.6
303.15 K, x1 = 0.6857	1165.73	1314.7
303.15 K, x1 = 0.7784	1185.68	1329.6
303.15 K, x1 = 0.8946	1207.65	1347.1
303.15 K, x1 = 1	1214.96	1359.3
308.15 K, x1 = 0.1078	944.257	1172.8
308.15 K, x1 = 0.2016	997.643	1196.4
308.15 K, x1 = 0.3056	1045.4	1222.6
308.15 K, x1 = 0.3855	1076.13	1242.8
308.15 K, x1 = 0.4815	1107.98	1263.5
308.15 K, x1 = 0.5918	1139.12	1284
308.15 K, x1 = 0.6857	1162.11	1300.8
308.15 K, x1 = 0.7784	1182.13	1315.8
308.15 K, x1 = 0.8946	1204.03	1333.5
308.15 K, x1 = 1	1211.13	1345.8
313.15 K, x1 = 0.1078	939.644	1153.7
313.15 K, x1 = 0.2016	993.304	1178.5
313.15 K, x1 = 0.3056	1041.23	1205.7
313.15 K, x1 = 0.3855	1072.05	1226.9
313.15 K, x1 = 0.4815	1104.1	1248.4
313.15 K, x1 = 0.5918	1135.23	1269.7
313.15 K, x1 = 0.6857	1158.31	1286.8
313.15 K, x1 = 0.7784	1178.4	1302.1
313.15 K, x1 = 0.8946	1200.3	1322.1
313.15 K, x1 = 1	1207.33	1332.7
318.15 K, x1 = 0.1078	935.027	1134.6
318.15 K, x1 = 0.2016	988.947	1160.7
318.15 K, x1 = 0.3056	1037	1189
318.15 K, x1 = 0.3855	1067.9	1211.2
318.15 K, x1 = 0.4815	1100.12	1233.6
318.15 K, x1 = 0.5918	1131.33	1255.5
318.15 K, x1 = 0.6857	1154.61	1273.1
318.15 K, x1 = 0.7784	1174.85	1288.7
318.15 K, x1 = 0.8946	1196.83	1309.5
318.15 K, x1 = 1	1203.5	1320.1
323.15 K, x1 = 0.1078	930.067	1115.7
323.15 K, x1 = 0.2016	984.404	1143
323.15 K, x1 = 0.3056	1032.8	1172.3
323.15 K, x1 = 0.3855	1063.84	1195.6
323.15 K, x1 = 0.4815	1096.14	1218.8
323.15 K, x1 = 0.5918	1127.43	1241.6
323.15 K, x1 = 0.6857	1150.89	1259.4
323.15 K, x1 = 0.7784	1171.35	1275.5
323.15 K, x1 = 0.8946	1193.45	1296.1
323.15 K, x1 = 1	1199.67	1307.7
